Experimental data: patent publication US8099262B2, “Estimation of clinical cut-offs” (priority 2004, dated 2012)
Entries after “also recorded” stand apart in the source; their conditions may differ. Read-outs that look alike come from different tables or passages of the source.

Columns and labels:
HIV [1] = format: in vivo; design: key to effect range (difference between maximum and minimum effect, log viral load): log viral load drop; max effect (FC 1) minus min effect (plateau); Linear Regression Higher CO / Linear Regression Lower CO: unit not given here
Source text: Databases of studies for patients with tenofovir containing regimens and consisting of patient baseline demographic characteristics, clinical outcome results with viral load and resistance data (Fold change), were retrieved and remapped according to a common structure allowing a meta-analysis. The structure consisted of baseline sequence, viral load data set, viral load measurements and sampling dates (for example viral load within 3 months of starting new regimen and viral load assessment 8 and/or 24 weeks after beginning new regimen), CD4+ data set which contains CD4+ counts and sampling dates, resistance data set containing the fold changes to different antivirals and sampling dates; patient data set with patient information such as age, gender, race, treatment history; treatment data set with drug regimens, start and stop dates, doses, formulations, frequency of intake, regimen changes after resistance tests. The structure of such a clinical data base can be seen in FIG. 1a.
The viral load response data includes censored (<400 copies/ml) values. Parameters of the underlying uncensored distribution were estimated by maximum likelihood estimation in SAS (proc lifereg). The viral load response data are corrected for baseline viral load and cPSS.
The models applied were linear regression, logistic regression, and a classification tree. These models also took into account effects of the concomitant HIV drugs (PSS), baseline viral load (Baseline Log(V1)i) and, optionally, treatment history in order to avoid bias introduced by imbalances of important characteristics. From the models, a prediction of clinical outcome could be made at different levels of the baseline fold change resistance.
In the linear regression model, the proposed equation was the following: LogVL dropi=β0+β1*Baseline Log(V1)i+β2*PSSi+β3*(1/FC)i+ξi where i represented the patient, β0 the intercept, β1, β2 and β3 coefficients indicated the increase in log viral load drop per unit increase of respectively the baseline log VL, the number of sensitive drugs in the background regimen and the inverse of the baseline fold change. ξi was a random error term indicating the deviation of the patient from the value predicted by the model. Interactions between all the factors were evaluated and other baseline characteristics, i.e treatment history, were added if relevant.
When viral load results under the detection limits are obtained, biases could be introduced if the detection limit values are considered when calculating viral load drops and using those in the linear regression model. To avoid this, censoring needed to be taken into account and therefore the PROC LIFEREG facility in the SAS package was employed.
Clinical responses were predicted in the models developed in previous step 2. […] In order to determine the fold changes at which clinically relevant diminished clinical responses can be observed, three definitions of clinical cut-offs were considered:
The maximum effect was defined as the treatment effect at fold change 1, and the minimum effect was defined as the treatment effect at a very high fold change (i.e. when the curve reached a plateau). The effect range was then the difference between the maximum effect and the minimum effect.

HIV [2] = format: in vivo
Source text: Further factors which may be taken into account when validating the model are the odds ratios determined using clinical cutoffs compared to those determined using biological cutoffs. These ratios represent the odds of being a responder in the group that is labeled resistant by the cutoffs divided by the odds of being a responder in the group that is labeled sensitive by the cutoffs. In this way it is possible to evaluate how well the cutoffs perform on a drug by drug basis. The further away that the odds ratio is from 1, the stronger the correlation between the resistance class and clinical outcome. The odds ratio as specified above yield numbers smaller than 1 as the odds of being a responder should be smaller in the higher resistance class. Put another way, the probability of response will decrease as the resistance increases. Additionally, if the odds ratio for the CCO is smaller than the odds ratio for the BCO, it can be concluded that the CCO is stronger correlated with clinical outcome and therefore gives a better prediction than the BCO.
(§1) A logistic regression model may be used to determine the odds ratio. The model used is the same as the logistic regression model described above except that the fold change in the model is replaced by the resistance class. The coefficient for the resistance class that is obtained from the model is the log (odds ratio). The advantage of using this model is that the odds ratio estimates can be adjusted for the baseline viral load and the cPSS score of the background regimen.
The columns headed CCO Odds Ratio and BCO Odds Ratio represent the odds of being a responder in the group that is labeled resistance by the cutoffs divided by the odds of being a responder in the group that is labeled sensitive by the cutoffs. For example, if there are four non-responders and one responder in the resistant group, and four responders and two non-responders in the sensitive group, the odds of being a responder in the resistant group is 1:4=0.25 and the odds of being a responder in the sensitive group is 4:2=2. […] The further away that the odds ratio is from 1, the stronger the correlation between the resistance class and clinical outcome.
The separation in groups (resistance/sensitive) can be done based on clinical cutoffs or biological cutoffs. This means that odds ratios based on clinical cutoffs (CCO) and odds ratios based on biological cutoffs (BCO) can be compared. If the odds ratio for the CCO is smaller than the odds ratio for the BCO, it can be concluded that the CCO gives a better prediction than the BCO.
as §1, with “In practice, a” for “A”, “is” for “may be”, “similar to” for “the same as the”, “earlier” for “above”, “regimen. […] In this case, a larger odds ratio indicates a stronger correlation with clinical outcome.” for “regimen.”

HIV [3] = conditions: Definition 3
Source text: This methodology constructs tree-structured rules in order to classify patients as successes (undetectable pathogen load after treatment) and failures. […] Imbalances for such parameters may therefore influence the decision taken for a certain parameter.
The classification tree poses queries, in which the answer to each query results in either the left or the right branch of the tree being taken at each stage. […] If yes, the left branch is taken, if no the right branch is taken. As with the methods of the aspects of the invention described previously, the other factors queried include the log baseline pathogen load and the phenotypic sensitivity score. The numbers at the termini of the final branches represent the response rate (1=100% response).
The clinical cut-off is chosen as the fold change that makes the difference between the two groups as large as possible.
In the classification trees model, tree-structured rules were constructed in order to classify patients in successes (undetectable viral load after treatment) and failures. The same parameters as for the other techniques were considered.
This implies that imbalances for other parameters may influence the decision taken for a certain parameter.
Definition 3 was a variant of definition 2.
Using definition 3, breakpoints determined by classification trees are applicable only to a subset of patients unless fold change is selected at the first tree node.

[4] = Definition 1, Subgroup 2: PSS = 0, baseline Log (VL) = 4
[5] = Definition 1, Subgroup 3: PSS = 2, baseline Log (VL) = 5
[6] = Definition 2, Overall (whole population)
[7] = Definition 2, Subgroup 1: PSS = 2, baseline Log (VL) = 4
[8] = Definition 2, Subgroup 2: PSS = 0, baseline Log (VL) = 4
[9] = Definition 2, Subgroup 3: PSS = 2, baseline Log (VL) = 5
[10] = Definition 2, two active drugs besides the drug, baseline Log(VL) of 4
[11] = Definition 3, Subgroup 1: PSS = 2, baseline Log (VL) = 4
[12] = Definition 3, Subgroup 2: PSS = 0, baseline Log (VL) = 4
[13] = Definition 3, Subgroup 3: PSS = 2, baseline Log (VL) = 5
[14] = preliminary linear regression analysis, virologic response at 8 weeks

CC(C)OC(=O)OCOP(=O)(CO[C@H](C)Cn1cnc2c(N)ncnc21)OCOC(=O)OC(C)C.O=C(O)/C=C/C(=O)O [TDF]
Linear Regression Lower CO (clinical cut-off, fold change) (HIV [1]; Definition 1, Subgroup 1: PSS = 2, baseline Log (VL) = 4): 3.73 | Linear Regression Higher CO (clinical cut-off, fold change) (HIV [1]; Definition 1, Subgroup 1: PSS = 2, baseline Log (VL) = 4, listed as Tenofovir): >assay | Linear Regression Higher CO (clinical cut-off, fold change) (HIV [1]; Definition 1, Subgroup 1: PSS = 2, baseline Log (VL) = 4, listed as tenofovir): No higher cut-off could be derived; also recorded: >assay | Linear Regression Higher CO (HIV [1]; [4]): 3.8 | Linear Regression Lower CO (HIV [1]; [4]): 1.68 | Linear Regression Higher CO (HIV [1]; [5]): >assay | Linear Regression Lower CO (HIV [1]; [5]): >assay | Linear Regression Higher CO (HIV [1]; [6]): 5 | Linear Regression Lower CO (HIV [1]; [6]): 1.25 | Linear Regression Higher CO (HIV [1]; [7]): 5 | Linear Regression Lower CO (HIV [1]; [7]): 1.25 | Linear Regression Higher CO (HIV [1]; [8]): 5 | Linear Regression Lower CO (HIV [1]; [8]): 1.25 | Linear Regression Higher CO (HIV [1]; [9]): 5 | Linear Regression Lower CO (HIV [1]; [9]): 1.25 | drop in log viral load at fold change 1 (HIV [1]; [10]): −1.48 | drop in log viral load at the maximum (asymptotic) fold change (HIV [1]; [10]): −0.28 | effect range (difference between maximum and minimum effect, log viral load) (HIV [1]; [10]): 1.2 | Linear Regression Higher CO (HIV [1]; Definition 3, Overall): 5 | Linear Regression Lower CO (HIV [1]; Definition 3, Overall): 1.1 | Linear Regression Higher CO (HIV [1]; [11]): 5 | Linear Regression Lower CO (HIV [1]; [11]): 1.1 | Linear Regression Higher CO (HIV [1]; [12]): 5 | Linear Regression Lower CO (HIV [1]; [12]): 1.1 | Linear Regression Higher CO (HIV [1]; [13]): 5 | Linear Regression Lower CO (HIV [1]; [13]): 1.1 | VIROLOGIC RESPONSE Baseline FC for 80% REDUCTION of response (upper cutoff) (HIV [1]; preliminary linear regression analysis, definition 2): 2.5 | VIROLOGIC RESPONSE 20% REDUCTION (fold change, preliminary VirtualPhenotype Clinical Cutoff) (HIV [1]; [14]): 1.2 | VIROLOGIC RESPONSE 80% REDUCTION (fold change, preliminary VirtualPhenotype Clinical Cutoff) (HIV [1]; [14]): 2.5 | lower cut-off derived from the Table (HIV [1]; summary over models, 2 active drugs besides the drug, baseline log(VL) of 4): 1.2 | Test Data BCO Odds Ratio (HIV [2]; test data, biological cutoffs): 0.570 | Test Data CCO Odds Ratio (HIV [2]; test data, clinical cutoffs): 0.228 | Validation Data CCO Odds Ratio (HIV [2]; validation data, clinical cutoffs): 0.226 | Classification Tree Lower CO (HIV [3]; Overall): 1.15 | Classification Tree Lower CO (HIV [3]; Subgroup 1: PSS = 2, baseline Log (VL) = 4): 1.15 | Classification Tree Lower CO (HIV [3]; Subgroup 2: PSS = 0, baseline Log (VL) = 4): 1.15 | Classification Tree Lower CO (HIV [3]; Subgroup 3: PSS = 2, baseline Log (VL) = 5): 1.15
